Series [1] concerns superoxide dismutase (SOD). Nature of the series: SOD activity in Gin-1 human gingival fibroblasts. The class given is cell-based. The note with it: Gin-1 cells; for SOD % Increase: vs untreated. How it is done: (§1) 1. In vitro Administration of compounds of Examples 1 or 2 (Compound 1 and Compound 2, respectively).
(§2) Two different cell types, human gingival fibroblasts (Gin-1) and bovine aortic endothelial cells (CPA ATCl CCL207) were obtained from the American Type Culture Collection. They were incubated until confluent in Dulbecco's modified Eagles medium, supplemented with 2 mM glutamine and 10% heat-inactivated fetal calf serum at 37° C. in a humidified chamber with 5% CO2 in air. Compounds were dissolved in DMSO, diluted to 100 mM with distilled deionized H2 O, and further diluted with Dulbecco's medium (without fetal bovine serum), to desired concentrations. The usual time of incubation with the compounds of this invention was 24 hr at 37° C. in a humidified incubator with 5% CO2 in air. Lactic dehydrogenase (LDH) release was determined in several in vitro preparations as an index of cytotoxicity. using Sigma Diagnostic Kit #500. LDH release was expressed as a percentage of total LDH activity released from cells treated with 0.4% Triton X [Cabaud, P. G., Wroblewski, F. Am. J. Clin. Pathol. 30:234-236, (1958)].
(§3) Prior to the enzymatic assays the Gin-1 cells and aortic endothelial cells were prepared as follows: cells were rinsed several times with phosphate buffered saline without Ca^+2 or Mg^+2, removed from the culture flasks with 0.25% trypsin, counted using a hemocytometer, and resuspended at 2-3×10^6 cells/ml in Dulbecco's medium without fetal calf serum. Cells were then disrupted by pulse sonication and centrifuged at 100,000 xg at 4° C. Total protein [Bradford, M. M., Anal. Biochem 72:248-254, (1976)] and enzyme activities were determined on the cell sonicates, using standard techniques, SOD activity was determined using the method of McCord and Fridovich [McCord, J., Fridovich I., J. Biol. Chem. 244:6049-6055, (1969)]. Catalase activity was measured using the method of Beers and Sizer [Beers, R. F., Sizer, I. W., J. Biol. Chem. 195:133-146, (1952)]. Glutathione peroxidase activity was determined by the method of Guenzler et al. [Guenzler, W. A., Kremers, H., Flohe, L., Z. Klin. Chem. Klin. Biochem. 12:444-448 (1974)].
(§4) All enzyme activities were expressed as units of activity per mg protein. The data were compared by Student's t test [Snedecor, W. G., Statistical Methods, p. 45, (1964)]. The level of significance was taken as p<0.05.

For series [2], the system named is glutathione peroxidase (GSH-PX). The experiment in a line: Glutathione peroxidase activity in Gin-1 human gingival fibroblasts. The class given is cell-based. The note with it: Gin-1 cells. How it is done: as §1, §2, §3, §4
Series [3] relates to superoxide dismutase (SOD). The experiment in a line: SOD activity in rat heart, liver and lung after in vivo treatment. Here is the method: Male Lewis rats (250 g) were injected with 0.9% saline (controls) or Compound 1 (100 mg/kg) intraperitoneally twice a day for two days. Heart, liver and lungs were removed en bloc, dissected free of extraneous tissue, and blotted dry to remove contaminating blood. A portion of each tissue (approximately 0.5 g) was homogenized, and centrifuged at 500 xg for 10 minutes at 4° C. A 2 ml aliquot of supernatant was removed and centrifuged at 25,000 xg for 30 minutes. The supernatants were then decanted, and analyzed for SOD and CAT activities and total protein as described above.
as §4

Series [4] has as its system Gin-1 cells. Nature of the series: LDH release from Gin-1 cells as index of cytotoxicity. The class given is cell-based, human. Here is the method: as §2
Experiment in series [5]: as above
The class given is cell-based, human. The note with it: human, % of total LDH released by 0.4% Triton X, mean ± SEM. Here is the method: as §2
Background: LDH in the medium is a marker of cell lysis.

Series [6] relates to polymorphonuclear leukocyte infiltration into ozone-exposed rat lungs. The note with it: Bassett et al. 1988; cited from earlier work.
Series [7] relates to superoxide dismutase (SOD). The experiment in a line: SOD activity in bovine aortic endothelial cells. The class given is cell-based. The note with it: for SOD activity: n = 10, mean ± SEM, * P < 0.05 vs 0 mM. Here is the method:
as §1, §2, §3, §4

Series [8] has as its system glutathione peroxidase (GSH-PX). The experiment in a line: Glutathione peroxidase activity in bovine aortic endothelial cells. The class given is cell-based. The note with it: for GSH-PX activity: n = 6, mean ± SEM. Here is the method:
as §1, §2, §3, §4

Series [9] deals with catalase (CAT). The experiment in a line: Catalase activity in Gin-1 human gingival fibroblasts. The class given is cell-based. The note with it: Gin-1 cells; for CAT % Increase: vs untreated. How it is done:
as §1, §2, §3, §4

Series [10] deals with catalase (CAT). Nature of the series: Catalase activity in bovine aortic endothelial cells. The class given is cell-based. The note with it: for CAT activity: n = 6, mean ± SEM. How it is done:
as §1, §2, §3, §4

Series [11] concerns superoxide dismutase (SOD) and catalase (CAT). Nature of the series: Induction of antioxidant enzymes SOD and CAT in mammalian cells and in organs of rats. The note with it: Gin-1 cells, 1.0 mM, 24 hours; either SOD or CAT, or both enzymes. Here is the method:
as §1, §2
as §3, with “Cells were then disrupted by pulse sonication and centrifuged at 100,000 xg at 4° C.” left out, “Chem. Klin. Biochem. 12:444-448 (1974)].” left out
All enzyme activities were expressed as units of activity per mg protein. […]

[12] abbreviates: Compound 2, at one or more concentrations.

For `O=C(NCCN1CCNC1=O)Nc1ccccc1` [Compound 1, 1-[2-(2-oxo-1-imidazolidinyl)ethyl]-3-phenylurea], the SOD activity is 13.1 ± 1.5 U/mg Protein in [1] (0.125 mM, n=7, mean ± SEM, * P < 0.05 vs 0 mM); 20.7 ± 3.3 U/mg Protein in [1] (0.25 mM, n=7, mean ± SEM, * P < 0.05 vs 0 mM); 11.6 ± 1.4 U/mg Protein in series [1] (1.0 mM, n=7, mean ± SEM, * P < 0.05 vs 0 mM); 13.5 ± 1.7 U/mg Protein in [1] (2.0 mM, n=7, mean ± SEM, * P < 0.05 vs 0 mM); 9.5 ± 1.8 U/mg Protein in series [7] (0.05 mM (so in the source)); 6.7 ± 0.8 U/mg Protein in [7] (0.25 mM). Further, the SOD activity in series [7] (1.0 mM) is reported as 12.2 ± 3.4 U/mg Protein. The “SOD activity compared with controls (in words)” value in series [1] (0.125-2.0 mM Compound 1) is “significantly increased (P<0.05)”. Further, the figures for the “GSH-PX activity (in words)” value in series [2] and in series [8] were “remained constant” and “not significantly different”, respectively. In addition, the GSH-PX activity in series [2] (0.125 mM, n=6, mean ± SEM) amounted to 52.1 ± 4.7 U/mg Protein; in series [2] (0.25 mM, n=6, mean ± SEM) it was 45.8 ± 3.5 U/mg Protein; in series [2] (1.0 mM, n=6, mean ± SEM), 45.1 ± 5.3 U/mg Protein; in series [2] (2.0 mM, n=6, mean ± SEM), 47.8 ± 3.8 U/mg Protein; in [8] (0.05 mM (so in the source)) it was 33.5 ± 3.2 U/mg Protein; in [8] (0.25 mM) it was 28.1 ± 5.7 U/mg Protein. This compound also showed a GSH-PX activity in series [8] (1.0 mM) of 59.8 ± 17 U/mg Protein. Moreover, the “Tissue SOD Activity, Heart” value in [3] (rat heart, 100 mg/kg i.p. 2 × /day for 2 days, (8), mean ± SEM, * P < 0.05 vs saline control) is given as 194 ± 14 U/mg Protein. Further, the “SOD activity in all three tissues (in words)” value in [3] (rat heart, liver, lung, compared with controls) is “induced SOD activity in all three tissues studied”. Further, the “Tissue SOD Activity, Liver” value in series [3] (rat liver, 100 mg/kg i.p. 2 × /day for 2 days, (8), mean ± SEM, * P < 0.05 vs saline control) came to 444 ± 68 U/mg Protein. Moreover, the “Tissue SOD Activity, Lung” value in series [3] (rat lung, 100 mg/kg i.p. 2 × /day for 2 days, (8), mean ± SEM, * P < 0.05 vs saline control) is 134 ± 7 U/mg Protein. For the same compound, the “Cytotoxicity as shown by LDH release (in words)” value in series [4] is “no indication of cytotoxicity”. In addition, the cytotoxicity at 24 h, 125 µM in series [5] (0.125 mM) came out at 7 ± 2%. In series [5] (1.0 mM), the cytotoxicity at 24 h, 1000 µM is 8 ± 2%. Besides, the “Polymorphonuclear leukocyte infiltration into ozone-exposed rat lungs” value in series [6] was “decreased polymorphonuclear leukocyte infiltration”. Further, the “SOD activity (in words)” value in [7] (concentration-dependent) is given as “significantly increased (P<0.05) in a concentration-dependent manner”. Also, the CAT activity stood at 9.1 ± 1.1 U/mg Protein in series [9] (0.125 mM, n=4, mean ± SEM, * P < 0.05 vs 0 mM); 10.0 ± 1.8 U/mg Protein in [9] (0.25 mM, n=4, mean ± SEM, * P < 0.05 vs 0 mM); 11.2 ± 2.0 U/mg Protein in [9] (1.0 mM, n=4, mean ± SEM, * P < 0.05 vs 0 mM); 13.9 ± 1.6 U/mg Protein in [9] (2.0 mM, n=4, mean ± SEM, * P < 0.05 vs 0 mM); 27.1 ± 3.3 U/mg Protein in series [10] (0.05 mM (so in the source)); 25.7 ± 3.6 U/mg Protein in [10] (0.25 mM). This compound also had a CAT activity in [10] (1.0 mM, * P < 0.05 vs 0 mM) of 31.9 ± 2.4 U/mg Protein. The “CAT activity compared with controls (in words)” value in series [9] (0.125-2.0 mM Compound 1) was “significantly increased (P<0.05)”. The “Catalase activity (in words)” value in [10] (highest concentration (1 mM) only) is “significantly increased at the highest concentration (1 mM) only”.

In the case of `O=C(NCCN1CCNC1=O)Nc1ccc(F)cc1` [Compound 2, 1-[2-(2-oxo-1-imidazolidinyl)ethyl]-3-(4-fluorophenyl)urea], the SOD activity in series [1] (0.25 mM, n = 8, mean ± SEM, * P < 0.05 vs 0 mM) was found to be 15.2 ± 1.6 U/mg Protein; in series [1] (0.50 mM, n = 8, mean ± SEM, * P < 0.05 vs 0 mM), 15.9 ± 1.7 U/mg Protein; in series [1] (1.0 mM, n = 8, mean ± SEM, * P < 0.05 vs 0 mM), 14.5 ± 2.2 U/mg Protein. Besides, the “SOD activity (in words)” value in [1] (setting [12]) is reported as “significantly increased (P<0.05) at one or more concentrations”. The “GSH-PX activity (in words)” value in [2] was “remained constant”. The GSH-PX activity in series [2] (Compound 2 table, 0.25 mM, n = 6, mean ± SEM) is 35.0 ± 1.4 U/mg Protein; in series [2] (Compound 2 table, 0.50 mM, n = 6, mean ± SEM), 40.0 ± 4.7 U/mg Protein; in series [2] (Compound 2 table, 1.0 mM, n = 6, mean ± SEM), 39.1 ± 4 U/mg Protein. Further, the CAT activity in [9] (0.25 mM, n=6, mean ± SEM) is 8.3 ± 0.8 U/mg Protein; in series [9] (0.50 mM, n = 6, mean ± SEM, * P < 0.05 vs 0 mM), 11.4 ± 1.8 U/mg Protein; in series [9] (1.0 mM, n=6, mean ± SEM), 9.5 ± 1.4 U/mg Protein. Moreover, the “CAT activity (in words)” value in series [9] (setting [12]) is “significantly increased (P<0.05) at one or more concentrations”.

For the compound `O=C(NCCN1CCNC1=O)Nc1ccc(Cl)cc1` [Example 7], the SOD activity in series [1] (1.0 mM, 24 hours, Table 5) came to 5.8 ± 1.2 U/mg Protein. The “SOD % Increase” value in [1] (1.0 mM, 24 hours) was 51%. The “SOD and/or CAT activity (in words)” value in series [11] was “increased”. The compound further showed a CAT activity in [9] (1.0 mM, 24 hours, Table 5) of 3.6 ± 0.9 U/mg Protein. The “CAT % Increase” value in [9] (1.0 mM, 24 hours) is reported as 95%.

Turning to `O=C(NCCN1CCNC1=S)Nc1ccccc1` [Example 11], in series [1] (1.0 mM, 24 hours), the “Effect on SOD activity, ranking among Ex. 7, 11, 12 (in words)” value is “least effect on SOD activity” and the “SOD % Increase” value came to 3%. The same compound came in with an SOD activity in series [1] (1.0 mM, 24 hours, Table 5) of 4.0 ± 0.8 U/mg Protein. Further, the “SOD and/or CAT activity (in words)” value in series [11] is reported as “increased”. In addition, in series [9] (1.0 mM, 24 hours), the “Effect on CAT activity, ranking among Ex. 7, 11, 12 (in words)” value is given as “affected CAT the most” and the “CAT % Increase” value was determined as 118%. The compound also came in with a CAT activity in [9] (1.0 mM, 24 hours, Table 5) of 4.1 ± 1.6 U/mg Protein.

Regarding `O=C(Nc1ccccc1)NN1CCCOC1=O` [Example 12], in series [1] (1.0 mM, 24 hours), the “Effect on SOD activity, ranking among Ex. 7, 11, 12 (in words)” value was “greatest effect on SOD” and the “SOD % Increase” value came to 69%. Moreover, the SOD activity in [1] (1.0 mM, 24 hours, Table 5) stood at 6.5 ± 0.9 U/mg Protein. Moreover, the “SOD and/or CAT activity (in words)” value in series [11] is on record as “increased”. Besides, in series [9] (1.0 mM, 24 hours), the “Effect on CAT activity, ranking among Ex. 7, 11, 12 (in words)” value is “least effect on CAT” and the “CAT % Increase” value is listed as 35%. Moreover, the CAT activity in series [9] (1.0 mM, 24 hours, Table 5) is listed as 2.5 ± 0.6 U/mg Protein.

(Values after patent US5001141A, “N-(2-(2-oxo-1-imidazolidinyl)ethyl)-3-phenyl-urea and analogs as agents for induction of antioxidant enzymes” (E. I. Du Pont de Nemours and Company, priority 1989, dated 1991).)
